Experimental data published in article PMC4184702 (Pharmacology Research & Perspectives, 2014).
“Also recorded” adds a separate entry of the source.

What was measured:
[1] = molecular target: T1, 5-HT7 (Homo sapiens, UniProt P34969); assay: PDSP primary binding, 5-HT7; conditions: n = 4, read-out: Inhibition (primary binding competition efficacy), 5-HT7
T1 construct: purchased NIMH Psychoactive Drug Screening Program (PDSP)
Experimental: (§1) For experimental details, please refer to the Psychoactive Drug Screening Program (PDSP) web site http://pdsp.med.unc.edu/.
(§2) ^a The default concentration for primary binding experiments is 10 µM (n = 4). ^b Negative inhibition represents a stimulation of binding. ^c BZPR: Benzodiazepine Receptors (rat brain site). ^d DOR: Delta Opioid Receptor; KOR: Kappa Opioid Receptor; MOR: Mu Opioid Receptor. ^e DAT: Dopamine Transporter; NET: Norepinephrine Transporter; SERT: Serotonin Transporter. ^f NMDA: N-methyl-D-aspartate receptor.

[2] = system: GABAB; assay: PDSP primary binding, GABAB; conditions: 10 µM, n = 4
Experimental: as §1, §2

[3] = molecular target: T2, CB2 (Homo sapiens, UniProt P34972); assay: PDSP primary binding, CB2; conditions: n = 4, read-out: Inhibition (primary binding competition efficacy), CB2
T2 construct: purchased NIMH Psychoactive Drug Screening Program (PDSP)
T2 sequence (P34972 whole entry): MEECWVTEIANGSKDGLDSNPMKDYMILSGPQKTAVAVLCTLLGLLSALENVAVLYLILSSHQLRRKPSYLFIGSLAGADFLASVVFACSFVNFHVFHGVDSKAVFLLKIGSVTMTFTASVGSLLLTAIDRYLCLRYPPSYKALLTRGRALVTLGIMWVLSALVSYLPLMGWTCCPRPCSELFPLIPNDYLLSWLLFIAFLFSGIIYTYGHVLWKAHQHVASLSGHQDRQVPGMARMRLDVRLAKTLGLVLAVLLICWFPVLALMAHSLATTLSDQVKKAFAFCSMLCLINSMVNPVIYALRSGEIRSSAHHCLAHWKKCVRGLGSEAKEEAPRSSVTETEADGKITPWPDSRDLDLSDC
Experimental: as §1, §2

[4] = molecular target: T3, human α7-nAChRs (Homo sapiens, UniProt P36544); assay: Whole-cell current recording, SH-EP1-hα7 cells; format: cell-based; conditions: 1 μmol/L
T3 construct: expressed in transfected cells; host or cells: SH-EP1 human epithelial cells (SH-EP1-hα7)
T3 sequence (P36544 23-502): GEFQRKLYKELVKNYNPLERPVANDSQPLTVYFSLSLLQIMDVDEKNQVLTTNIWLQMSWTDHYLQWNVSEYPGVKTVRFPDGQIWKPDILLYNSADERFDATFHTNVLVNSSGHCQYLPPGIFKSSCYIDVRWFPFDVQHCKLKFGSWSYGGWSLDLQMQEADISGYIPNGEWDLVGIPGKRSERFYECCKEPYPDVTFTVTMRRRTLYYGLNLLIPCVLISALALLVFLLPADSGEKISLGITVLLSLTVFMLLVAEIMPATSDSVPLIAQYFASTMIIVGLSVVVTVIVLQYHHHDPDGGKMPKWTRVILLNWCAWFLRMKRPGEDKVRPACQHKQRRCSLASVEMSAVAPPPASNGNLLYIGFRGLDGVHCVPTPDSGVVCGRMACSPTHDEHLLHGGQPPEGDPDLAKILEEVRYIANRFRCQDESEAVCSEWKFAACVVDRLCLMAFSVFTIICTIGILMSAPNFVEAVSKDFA
Experimental: Glass microelectrodes made with 3–5 MΩ resistance between pipette and extracellular solutions were used to obtain >1 GΩ seals on the cell surface just prior to conversion into standard whole-cell current recording mode by applying suction to the pipette. After allowing exchange between the pipette solution and the cytosol for 5 10 min, cells with attached pipettes were lifted gently from the bottom of the culture dish via micromanipulation of the pipette to improve kinetics of solution exchange around the cell. Access resistance (Ra) was measured and accepted if it was less than 20 MΩ. Pipette and whole-cell capacitance were both minimized, and series resistance was compensated routinely to 80%. Cells were voltage-clamped at −60 mV, and inward currents induced by indicated nicotinic agonists at the specified concentrations were measured (200B amplifier; Molecular Devices, Sunnyvale, CA). […] Data acquisition and analyses were conducted using pClamp9.2 (Molecular Devices), and results were plotted by using Origin 5.0 (OriginLab Corp., North Hampton, MA). All experiments were performed at room temperature (22 ± 1°C).
The external solution for SH-EP1 cell recording contained 120 mmol/L NaCl, 5 mmol/L KCl, 2 mmol/L MgCl2, 2 mmol/L CaCl2, 25 mmol/L D-glucose, and 10 mmol/L HEPES<< HEPES >>, pH 7.4 (Tris-base). For conventional whole-cell recording, the pipette solution contained 110 mmol/L Tris-phosphate dibasic, 28 mmol/L Tris-base, 11 mmol/L EGTA<< EGTA >>, 2 mmol/L MgCl2, 0.5 mmol/L CaCl2, and 4 mmol/L Na-ATP at pH 7.3. Drugs (standard compounds were obtained from Sigma Chemical, St. Louis, MO) were delivered to the recorded cell by a computer-controlled perfusion system (SF-77B Perfusion Fast Step, Warner Instruments Incorporated, A Harvard Bioscience Company, Holliston, MA), allowing the recorded cell can be completely surrounded by the applied drug within 20 msec. The interval between drug applications (2 min) was optimized specifically to ensure stability of nAChR responsiveness (without functional rundown).

T1 sequence (P34969 whole entry): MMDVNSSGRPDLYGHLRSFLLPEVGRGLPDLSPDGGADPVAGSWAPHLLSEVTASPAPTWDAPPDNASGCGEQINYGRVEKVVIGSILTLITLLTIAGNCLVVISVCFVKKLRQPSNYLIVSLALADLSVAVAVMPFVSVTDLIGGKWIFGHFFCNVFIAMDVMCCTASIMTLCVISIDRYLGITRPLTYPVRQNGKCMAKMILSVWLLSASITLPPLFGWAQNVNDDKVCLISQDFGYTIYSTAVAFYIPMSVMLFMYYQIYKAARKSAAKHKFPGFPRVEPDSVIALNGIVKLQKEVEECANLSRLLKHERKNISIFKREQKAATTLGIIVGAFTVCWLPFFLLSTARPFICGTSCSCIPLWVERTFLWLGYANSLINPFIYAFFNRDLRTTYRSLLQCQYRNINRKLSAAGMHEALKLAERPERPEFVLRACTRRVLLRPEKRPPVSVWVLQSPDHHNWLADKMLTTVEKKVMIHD

OCCc1cc(-c2cncc(OC[C@@H]3CCN3)c2)on1 [LF-3-88, 2-[5-[5-(2(S)-azetidinylmethoxyl)-3-pyridyl]-3-isoxazolyl]ethanol]
inhibition at 10 µM [1]: 1.1%
Inhibition (primary binding competition efficacy), GABAB [2]: 1.1%
inhibition at 10 µM [3]: -7.3%
agonist activity at α7-nAChRs (whole-cell) [4]: no agonist activity
effect of coapplication with choline at α7-nAChRs (whole-cell) ([4]; 10 mmol/L choline): no effect
inhibition of activation by 10 mmol/L choline at α7-nAChRs (whole-cell) ([4]; 2-min pretreatment): slightly inhibit; also recorded: only weakly
